Results: patent publication US8268829B2, “Substituted pyrimidines useful as protein kinase inhibitors” (Vertex Pharmaceuticals Inc., priority 2002, dated 2012)

First: CCC(=O)Nc1ccc(Sc2nc(Nc3cc(C)n[nH]3)cc(N3CC(C)NC(C)C3)n2)cc1 (centres unmarked) [Compound I-19]
Second: CCC(=O)Nc1ccc(Sc2nc(Nc3cc(C)n[nH]3)cc(N3CCC(N)C3)n2)cc1 (centres unmarked) [Compound I-20]
The melting point of the first is lower: 151 to 152 °C for the first, 159 to 160 °C for the second.

First: Cc1cc(Nc2cc(NCCN3CCCC3)nc(Sc3ccc(NC(=O)C4CC4)cc3)n2)[nH]n1 [Compound I-29]
Second: Cc1cc(Nc2cc(N3CCOCC3)nc(Sc3ccc(NC(=O)C4CC4)cc3)n2)[nH]n1 [Compound I-61]
The melting point of the first is lower: 220 to 222 °C for the first, 238 to 239 °C for the second.

First: N#CCCN1CCN(c2cc(Nc3ccn[nH]3)nc(Sc3ccc(NC(=O)C4CC4)cc3)n2)CC1 [Compound I-37]
Second: CS(=O)(=O)CCN1CCN(c2cc(Nc3ccn[nH]3)nc(Sc3ccc(NC(=O)C4CC4)cc3)n2)CC1 [Compound I-45]
The melting point of the first is lower: 131 to 132 °C for the first, 154 to 155 °C for the second.

`CS(=O)(=O)N1CCN(c2cc(Nc3ccn[nH]3)nc(Sc3ccc(NC(=O)C4CC4)cc3)n2)CC1` [Compound I-42] and `CC(C)(C)N1CCN(c2cc(Nc3ccn[nH]3)nc(Sc3ccc(NC(=O)C4CC4)cc3)n2)CC1` [Compound I-53] cannot be ordered by melting point: 168 to 169 °C for the first, 167 to 169 °C for the second.

Compared with `CC1CN(c2cc(Nc3ccn[nH]3)nc(Sc3ccc(NC(=O)C4CC4)cc3)n2)CCN1` (centres unmarked) [Compound I-46], `O=C(Nc1ccc(Sc2nc(Nc3ccn[nH]3)cc(N3CCN(CC(=O)N4CCOCC4)CC3)n2)cc1)C1CC1` [Compound I-47] is lower in melting point: 160 to 161 °C for the first, 158 to 159 °C for the second.

`Cc1cc(Nc2cc(N3CCNCC3)nc(Sc3ccc(NC(=O)C(C)(C)C)cc3)n2)[nH]n1` [Compound V-3] showed a melting point of 178 to 181 °C.
